According to the CheMixHub viscosity set:

Assay: xn = mol fraction of the nth substance listed

ClC(Cl)=C(Cl)Cl + Cc1ccc(C)cc1
303.15 K, 101 kPa
Settings | viscosity [mPa·s]
x1 = 0.106 | 0.586
x1 = 0.1121 | 0.588
x1 = 0.212 | 0.607
x1 = 0.6339 | 0.704
x1 = 0.6982 | 0.719
x1 = 0.7773 | 0.738
x1 = 0.8517 | 0.757

CCCCCCCC + c1ccccc1
298.15 K, 101.33 kPa
Settings | viscosity [mPa·s]
x1 = 0.04472 | 0.5829
x1 = 0.09184 | 0.5595
x1 = 0.1715 | 0.5352
x1 = 0.2954 | 0.5061
x1 = 0.4088 | 0.4934
x1 = 0.4907 | 0.4904
x1 = 0.5855 | 0.4924
x1 = 0.739 | 0.4929
x1 = 0.928 | 0.5124

O=[N+]([O-])c1ccccc1 + COCCO
Settings | viscosity [mPa·s]
298.15 K, 101 kPa, x1 = 0.0511 | 1.561
298.15 K, 101 kPa, x1 = 0.101 | 1.58
298.15 K, 101 kPa, x1 = 0.2028 | 1.624
298.15 K, 101 kPa, x1 = 0.3038 | 1.673
298.15 K, 101 kPa, x1 = 0.4004 | 1.72
298.15 K, 101 kPa, x1 = 0.4502 | 1.743
298.15 K, 101 kPa, x1 = 0.5003 | 1.764
298.15 K, 101 kPa, x1 = 0.5524 | 1.785
298.15 K, 101 kPa, x1 = 0.6001 | 1.801
298.15 K, 101 kPa, x1 = 0.6981 | 1.829
298.15 K, 101 kPa, x1 = 0.7856 | 1.847
298.15 K, 101 kPa, x1 = 0.8931 | 1.85
298.15 K, 101 kPa, x1 = 0.9407 | 1.839
303.15 K, 101.33 kPa, x2 = 0.132 | 1.553
303.15 K, 101.33 kPa, x2 = 0.2148 | 1.514
303.15 K, 101.33 kPa, x2 = 0.2725 | 1.49
303.15 K, 101.33 kPa, x2 = 0.3929 | 1.453
303.15 K, 101.33 kPa, x2 = 0.5243 | 1.428
303.15 K, 101.33 kPa, x2 = 0.5584 | 1.425
303.15 K, 101.33 kPa, x2 = 0.7423 | 1.409
303.15 K, 101.33 kPa, x2 = 0.8512 | 1.397
303.15 K, 101.33 kPa, x2 = 0.9147 | 1.391

CCCCCO + CCCCCCCC
viscosity [mPa·s], 101 kPa
Settings | 298.15 K | 318.15 K
x1 = 0.0618 | 0.537 | 0.426
x1 = 0.1297 | 0.57 | 0.449
x1 = 0.2063 | 0.617 | 0.484
x1 = 0.2744 | 0.671 | 0.517
x1 = 0.3509 | 0.749 | 0.57
x1 = 0.5159 | 1.007 | 0.72
x1 = 0.5831 | 1.166 | 0.813
x1 = 0.6979 | 1.536 | 1.025
x1 = 0.8127 | 2.072 | 1.298
x1 = 0.9043 | 2.694 | 1.611
x1 = 0.952 | 3.056 | 1.814

CC12CC3CC(C)(C1)CC(C)(C3)C2 + c1ccc2c(c1)CCCC2
viscosity [mPa·s], 100 kPa
Settings | x1 = 0.1006 | x1 = 0.2003 | x1 = 0.2993 | x1 = 0.4002 | x1 = 0.4993 | x1 = 0.6013 | x1 = 0.7012 | x1 = 0.8008 | x1 = 0.9005
293.15 K | 2.14 | 2.1 | 2.1 | 2.12 | 2.16 | 2.22 | 2.29 | 2.38 | 2.5
298.15 K | 1.93 | 1.9 | 1.9 | 1.92 | 1.95 | 2 | 2.07 | 2.15 | 2.25
303.15 K | 1.76 | 1.73 | 1.73 | 1.75 | 1.78 | 1.82 | 1.88 | 1.95 | 2.04
308.15 K | 1.61 | 1.59 | 1.59 | 1.6 | 1.62 | 1.67 | 1.72 | 1.78 | 1.85
313.15 K | 1.48 | 1.46 | 1.46 | 1.47 | 1.49 | 1.53 | 1.57 | 1.63 | 1.7
318.15 K | 1.37 | 1.35 | 1.35 | 1.36 | 1.38 | 1.41 | 1.45 | 1.5 | 1.56
323.15 K | 1.26 | 1.25 | 1.25 | 1.26 | 1.28 | 1.31 | 1.34 | 1.39 | 1.44
